Common to all, as to assay type: cell-based, human
The subject of one experiment is U251 cells. The experiment is described as follows: NTA exosome release assay. The procedure:
To investigate the correlation between the malignant transition of hypoxic GMs and their production and release of exosomes, the secretion assay of exosomes was conducted via using nanoparticle tracking analysis (NTA). U251 cells were tested under normoxic or hypoxic condition.
Briefly, a represents Exo-FBS medium, b represents Sodium-L-lactate (20 mM), c represents BAPTA-AM, d represents BAPTA-AM with the pretreatment of Sodium-L-lactate (20 mM). All chemicals were dissolved in the Exo-FBS medium containing 1% DMSO. All data were shown as the mean±SEM. Significance level: **P<0.01, *P<0.05, hypoxia vs. normoxia, No-treatment vs. BAPTA-AM, MCT1 KD virus vs. Empty backbone virus (control 1), CD147 antisense vs. antisense control (control 2).

A further experiment relates to GMs. The experiment is described as follows: Intracellular Ca2+ level (Fluo-4 AM Ca2+ assay / Fura Red imaging). Particulars: FIG. 23B. The procedure:
To further investigate whether the change of intracellular Ca^2+ concentrations could be associated with hypoxia-driven enhanced exosome release, […], AM Ca^2+ imaging and Fluo-4 AM Ca^2+ assay were conducted with normoxic- and hypoxic-U251 cells.
To recapitulate the hypoxia-induced acidic TME, sodium-L-lactates (20 mM) were applied to the culture medium of GMs.

For a further experiment, the system named is HIF-1α.

`C[C@H](O)C(=O)[O-].[Na+]` [sodium-L-lactate]: the exosome release result in the experiment with U251 cells (GMs exposed to sodium-L-lactate 20 mM for 10 min, FIG. 23C) is on record as “promote exosome release”. In addition, in the experiment with GMs (GMs, sodium-L-lactate 20 mM, 100 μl added to 2 ml medium), the “intracellular Ca2+ level” value is given as “enhanced intracellular Ca^2+ level”.
Take `[Cl-].[Cl-].[Co+2]` [CoCl2]: the “HIF-1α expression and nuclear localization” value with HIF-1α was “increased HIF-1α expression and enhanced nuclear localization of HIF-1α”.
For the molecule `CC(=O)OCOC(=O)CN(CC(=O)OCOC(C)=O)c1ccccc1OCCOc1ccccc1N(CC(=O)OCOC(C)=O)CC(=O)OCOC(C)=O` [BAPTA-AM], the exosome release entry is listed as “marked decline in exosome release” with U251 cells (GMs with induction of MCT1 OE and CD147 OE, BAPTA-AM 20 μM, 100 μl added to 2.1 ml medium, FIG. 23A); “blocked” with U251 cells (GMs, lactate-stimulated release, BAPTA-AM with pretreatment of sodium-L-lactate 20 mM, 10 min, FIG. 23C); “blocked the enhanced release of exosomes” in the experiment with U251 cells (hypoxia-enhanced release from U251 cells, intracellular Ca2+ chelated with BAPTA-AM (20 μM)). Besides, the “intracellular Ca2+ level” value in the experiment with GMs (GMs after sodium-L-lactate, BAPTA-AM 20 μM, 100 μl added to 2.1 ml medium) is on record as “distinctive decline in intracellular Ca^2+ level”.
